Reference: patent publication US7915276B2, “Berberrubine derivatives having antifungal activities” (priority 2006, dated 2011)

How the values were obtained:
[1] = target: T1, chitin synthase 2 of Saccharomyces cerevisiae ECY38-38A(pAS6) (Saccharomyces cerevisiae, UniProt P14180); assay: In vitro enzyme assay for chitin synthase 2 of Saccharomyces cerevisiae (enzyme 2); format: biochemical; details: relative to polyoxin D (50% inhibitory activity = value 5)
T1 construct: made in house; host or cells: Saccharomyces cerevisiae ECY38-38A (chs1-23 chs2::LEU2 cal1/csd2) carrying plasmid pAS6, grown in galactose medium; 130,000 x g membrane pellet
T1 sequence (P14180 whole entry): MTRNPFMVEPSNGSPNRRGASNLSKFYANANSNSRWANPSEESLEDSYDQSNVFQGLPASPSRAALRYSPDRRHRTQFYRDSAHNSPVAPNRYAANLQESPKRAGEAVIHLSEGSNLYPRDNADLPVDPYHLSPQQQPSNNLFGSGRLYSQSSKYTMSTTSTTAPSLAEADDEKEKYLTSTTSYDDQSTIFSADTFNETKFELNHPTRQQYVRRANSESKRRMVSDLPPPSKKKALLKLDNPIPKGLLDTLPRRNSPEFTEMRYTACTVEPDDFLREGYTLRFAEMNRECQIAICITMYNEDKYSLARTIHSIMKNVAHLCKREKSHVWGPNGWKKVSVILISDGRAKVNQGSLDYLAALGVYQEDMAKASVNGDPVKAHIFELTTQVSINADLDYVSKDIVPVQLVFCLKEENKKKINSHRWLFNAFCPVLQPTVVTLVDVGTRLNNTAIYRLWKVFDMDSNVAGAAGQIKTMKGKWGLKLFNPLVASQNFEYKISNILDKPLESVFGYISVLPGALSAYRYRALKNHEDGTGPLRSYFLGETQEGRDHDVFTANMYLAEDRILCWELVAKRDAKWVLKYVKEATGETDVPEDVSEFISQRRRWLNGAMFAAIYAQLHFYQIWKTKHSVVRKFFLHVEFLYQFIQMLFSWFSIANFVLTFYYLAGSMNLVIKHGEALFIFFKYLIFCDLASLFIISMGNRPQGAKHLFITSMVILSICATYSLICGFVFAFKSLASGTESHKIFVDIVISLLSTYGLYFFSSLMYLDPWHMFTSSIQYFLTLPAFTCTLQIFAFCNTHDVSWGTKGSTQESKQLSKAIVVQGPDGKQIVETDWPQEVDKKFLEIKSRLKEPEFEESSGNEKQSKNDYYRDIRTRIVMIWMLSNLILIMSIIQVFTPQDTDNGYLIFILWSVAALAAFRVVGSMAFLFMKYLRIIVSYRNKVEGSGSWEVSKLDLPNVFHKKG
Method in brief: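 Crude membrane chitin synthase 2 came from S. cerevisiae ECY38-38A(pAS6), expressing only CHS2, and was trypsin-activated (15 min, 30 °C) then trypsin-inhibited. The reaction ran in 32 mM Tris-HCl pH 7.5, 2 mM cobalt acetate, 1.1 mM UDP-[14C]-GlcNAc, 90 min at 30 °C. TCA-precipitated product was counted by scintillation; scores 1–8 reflect concentration relative to polyoxin D's 50% inhibition (score 5).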

[2] = system: Candida glabrata ATCC 48435; assay: In vitro antifungal activity (MIC), NCCLS method; format: cell-based; details: Candida glabrata ATCC 48435; 48 hours
Source text: (§1) Candida albicans ATCC 10231, Candida lusitaniae ATCC 42720, Candida krusei ATCC 6258, Candida tropicalis ATCC 13803, Candida glabrata ATCC 48435, Candida parapsilosis ATCC 34136, Cryptococcus neoformans ATCC 36556, Aspergillus fumigatus ATCC 16424, Aspergillus flavus ATCC 64025, Aspergillus terreus ATCC 46941 and Mucor ramosissimus ATCC 90286 strains for the MIC (minimum inhibitory concentration) measurement were obtained from ATCC (American Type Culture Collection) in the U.S. The Candida albicans A207(clinical isolate) strain was used by isolating it from the patients.
(§2) The determination of MIC was performed according to the NCCLS (National Committee for Clinical Laboratory Standard) method. Each test sample solution was diluted two-fold and inoculated with a fungal suspension to reach a final inoculum size of 5×10^2 to 2.5×10^3 cell/mL. The Cryptococcus neoformans strain was cultured in the RPMI 1640 medium for 72 hours. Other strains were cultured for 48 hours.

[3] = system: Candida tropicalis ATCC 13803; assay: In vitro antifungal activity (MIC), NCCLS method; format: cell-based; details: 48 hours
Source text: as §1, §2

[4] = system: Candida parapsilosis ATCC 34136; assay: In vitro antifungal activity (MIC), NCCLS method; format: cell-based; details: Candida parapsilosis ATCC 34136; 48 hours
Source text: as §1, §2

[5] = system: Candida albicans A207 (clinical isolate); assay: In vitro antifungal activity (MIC), NCCLS method; format: cell-based; details: 48 hours
Source text: as §1, §2

[6] = system: Aspergillus terreus ATCC 46941; assay: In vitro antifungal activity (MIC), NCCLS method; format: cell-based; details: 48 hours
Source text: as §1, §2

[7] = system: Aspergillus flavus ATCC 64025; assay: In vitro antifungal activity (MIC), NCCLS method; format: cell-based; details: 48 hours
Source text: as §1, §2

[8] = system: Aspergillus fumigatus ATCC 16424; assay: In vitro antifungal activity (MIC), NCCLS method; format: cell-based; details: 48 hours
Source text: as §1, §2

[9] = system: Candida albicans ATCC 10231; assay: In vitro antifungal activity (MIC), NCCLS method; format: cell-based; details: 48 hours
Source text: as §1, §2

Candida krusei ATCC 6258 = assay: In vitro antifungal activity (MIC), NCCLS method; format: cell-based; details: 48 hours
Source text: as §1, §2

[10] = system: Cryptococcus neoformans ATCC 36556; assay: In vitro antifungal activity (MIC), NCCLS method; format: cell-based; details: RPMI 1640 medium, 72 hours
Source text: as §1, §2

[11] = system: Candida lusitaniae ATCC 42720; assay: In vitro antifungal activity (MIC), NCCLS method; format: cell-based; details: 48 hours
Source text: as §1, §2

[12] = system: Mucor ramosissimus ATCC 90286; assay: In vitro antifungal activity (MIC), NCCLS method; format: cell-based; details: 48 hours
Source text: as §1, §2

[13] = target: T2, chitin synthase 1 of Candida albicans chs2 Δ chs 3 Δ (Candida albicans, UniProt P23316); assay: In vitro enzyme assay for chitin synthase 1 of Candida albicans (enzyme 1); format: biochemical; details: relative to polyoxin D (50% inhibitory activity = value 5)
T2 construct: Crude enzyme was prepared using the Candida albicans chs2 Δ chs 3 Δ mutant; endogenous in cells; host or cells: Candida albicans chs2Δ/chs2Δ chs3Δ/chs3Δ mutant; 130,000 x g membrane pellet
T2 sequence (P23316 whole entry, stated change not applied): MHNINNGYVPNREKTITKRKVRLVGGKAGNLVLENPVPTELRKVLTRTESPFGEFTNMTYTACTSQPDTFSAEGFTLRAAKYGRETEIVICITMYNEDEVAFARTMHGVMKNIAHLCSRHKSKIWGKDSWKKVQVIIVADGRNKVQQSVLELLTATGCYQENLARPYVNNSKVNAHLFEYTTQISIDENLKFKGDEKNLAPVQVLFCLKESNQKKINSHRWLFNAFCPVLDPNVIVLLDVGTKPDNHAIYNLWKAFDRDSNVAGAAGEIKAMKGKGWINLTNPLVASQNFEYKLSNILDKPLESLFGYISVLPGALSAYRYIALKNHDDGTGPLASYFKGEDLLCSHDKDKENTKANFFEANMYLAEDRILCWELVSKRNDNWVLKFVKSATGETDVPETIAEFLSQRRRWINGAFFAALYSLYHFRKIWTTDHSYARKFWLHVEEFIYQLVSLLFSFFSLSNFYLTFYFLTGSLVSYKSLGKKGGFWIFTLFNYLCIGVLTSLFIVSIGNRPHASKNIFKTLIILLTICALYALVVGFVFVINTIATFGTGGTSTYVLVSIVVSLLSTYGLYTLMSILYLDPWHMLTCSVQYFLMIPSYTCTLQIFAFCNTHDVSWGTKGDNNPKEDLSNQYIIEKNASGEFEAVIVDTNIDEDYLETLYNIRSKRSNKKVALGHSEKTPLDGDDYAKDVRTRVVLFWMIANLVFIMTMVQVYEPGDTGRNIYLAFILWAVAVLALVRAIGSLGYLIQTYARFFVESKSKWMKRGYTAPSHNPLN
Method in brief: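 Crude membrane enzyme from the C. albicans chs2Δ chs3Δ strain was trypsin-activated for 15 min at 30 °C. Reaction: 32 mM Tris-HCl pH 7.5, 2 mM cobalt acetate, 1.1 mM UDP-[14C]GlcNAc, 90 min at 30 °C; TCA-insoluble radioactivity counted. Scored 1–8 by relative polyoxin D concentration (5 = equal).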

13-(4-Isopropylbenzyl)-9-O-(6-chlorohexyl)berberrubine chloride [Compound No. 54]
Relative activity Enzyme 2 [1]: 6 (compounds having the inhibitory activity at ½, ¼ and ⅛ lower concentrations than that of polyoxin D were given the values of 6, 7 and 8, respectively)
MIC (minimum inhibitory concentration) [2]: 2 µg/mL
MIC (minimum inhibitory concentration) [3]: 0.5 µg/mL
MIC (minimum inhibitory concentration) [4]: 2 µg/mL
MIC (minimum inhibitory concentration) [5]: 0.5 µg/mL
MIC (minimum inhibitory concentration) [6]: 8 µg/mL
MIC (minimum inhibitory concentration) [7]: 8 µg/mL
MIC (minimum inhibitory concentration) [8]: 2 µg/mL
MIC (minimum inhibitory concentration) [9]: 0.5 µg/mL
MIC (minimum inhibitory concentration) (Candida krusei ATCC 6258): 1 µg/mL
MIC (minimum inhibitory concentration) [10]: 1 µg/mL
MIC (minimum inhibitory concentration) [11]: 2 µg/mL
MIC (minimum inhibitory concentration) [12]: 4 µg/mL
Relative activity Enzyme 1 [13]: 2 (Compounds having the inhibitory activity at 2-fold, 4-fold, 8-fold and 16-fold higher concentrations than that of polyoxin D were given the values of 4, 3, 2 and 1, respectively)

13-(4-Isopropylbenzyl)-9-O-allylberberrubine chloride [Compound No. 55]
Relative activity Enzyme 2 [1]: 6 (compounds having the inhibitory activity at ½, ¼ and ⅛ lower concentrations than that of polyoxin D were given the values of 6, 7 and 8, respectively)
MIC (minimum inhibitory concentration) [2]: 8 µg/mL
MIC (minimum inhibitory concentration) [3]: 1 µg/mL
MIC (minimum inhibitory concentration) [4]: 4 µg/mL
MIC (minimum inhibitory concentration) [5]: 1 µg/mL
MIC (minimum inhibitory concentration) [6]: 8 µg/mL
MIC (minimum inhibitory concentration) [7]: 8 µg/mL
MIC (minimum inhibitory concentration) [8]: 8 µg/mL
MIC (minimum inhibitory concentration) [9]: 1 µg/mL
MIC (minimum inhibitory concentration) (Candida krusei ATCC 6258): 2 µg/mL
MIC (minimum inhibitory concentration) [10]: 2 µg/mL
MIC (minimum inhibitory concentration) [11]: 2 µg/mL
MIC (minimum inhibitory concentration) [12]: 4 µg/mL
Relative activity Enzyme 1 [13]: 3 (Compounds having the inhibitory activity at 2-fold, 4-fold, 8-fold and 16-fold higher concentrations than that of polyoxin D were given the values of 4, 3, 2 and 1, respectively)

13-(4-Isopropylbenzyl)-9-O-allylberberrubine iodide [Compound No. 23]
Relative activity Enzyme 2 [1]: 5 (A compound having the same inhibitory activity as that of polyoxin D at the same concentration was given the value 5)
MIC (minimum inhibitory concentration) [2]: 8 µg/mL
MIC (minimum inhibitory concentration) [3]: 1 µg/mL
MIC (minimum inhibitory concentration) [4]: 4 µg/mL
MIC (minimum inhibitory concentration) [5]: 1 µg/mL
MIC (minimum inhibitory concentration) [6]: 8 µg/mL
MIC (minimum inhibitory concentration) [7]: 8 µg/mL
MIC (minimum inhibitory concentration) [8]: 8 µg/mL
MIC (minimum inhibitory concentration) [9]: 1 µg/mL
MIC (minimum inhibitory concentration) (Candida krusei ATCC 6258): 2 µg/mL
MIC (minimum inhibitory concentration) [10]: 2 µg/mL
MIC (minimum inhibitory concentration) [11]: 2 µg/mL
MIC (minimum inhibitory concentration) [12]: 4 µg/mL
Relative activity Enzyme 1 [13]: 2 (Compounds having the inhibitory activity at 2-fold, 4-fold, 8-fold and 16-fold higher concentrations than that of polyoxin D were given the values of 4, 3, 2 and 1, respectively)

13-(4-Isopropylbenzyl)-9-O-crotylberberrubine bromide [Compound No. 24]
Relative activity Enzyme 2 [1]: 5 (A compound having the same inhibitory activity as that of polyoxin D at the same concentration was given the value 5)
MIC (minimum inhibitory concentration) [2]: 4 µg/mL
MIC (minimum inhibitory concentration) [3]: 0.5 µg/mL
MIC (minimum inhibitory concentration) [4]: 4 µg/mL
MIC (minimum inhibitory concentration) [5]: 0.5 µg/mL
MIC (minimum inhibitory concentration) [6]: 4 µg/mL
MIC (minimum inhibitory concentration) [7]: 8 µg/mL
MIC (minimum inhibitory concentration) [8]: 2 µg/mL
MIC (minimum inhibitory concentration) [9]: 0.5 µg/mL
MIC (minimum inhibitory concentration) (Candida krusei ATCC 6258): 1 µg/mL
MIC (minimum inhibitory concentration) [10]: 1 µg/mL
MIC (minimum inhibitory concentration) [11]: 1 µg/mL
MIC (minimum inhibitory concentration) [12]: 4 µg/mL
Relative activity Enzyme 1 [13]: 2 (Compounds having the inhibitory activity at 2-fold, 4-fold, 8-fold and 16-fold higher concentrations than that of polyoxin D were given the values of 4, 3, 2 and 1, respectively)

13-(4-Isopropylbenzyl)-9-O-hexylberberrubine chloride [Compound No. 51]
Relative activity Enzyme 2 [1]: 6 (compounds having the inhibitory activity at ½, ¼ and ⅛ lower concentrations than that of polyoxin D were given the values of 6, 7 and 8, respectively)
MIC (minimum inhibitory concentration) [2]: 2 µg/mL
MIC (minimum inhibitory concentration) [3]: 0.125 µg/mL
MIC (minimum inhibitory concentration) [4]: 2 µg/mL
MIC (minimum inhibitory concentration) [5]: 0.25 µg/mL
MIC (minimum inhibitory concentration) [6]: 8 µg/mL
MIC (minimum inhibitory concentration) [7]: 8 µg/mL
MIC (minimum inhibitory concentration) [8]: 2 µg/mL
MIC (minimum inhibitory concentration) [9]: 0.25 µg/mL
MIC (minimum inhibitory concentration) (Candida krusei ATCC 6258): 1 µg/mL
MIC (minimum inhibitory concentration) [10]: 0.5 µg/mL
MIC (minimum inhibitory concentration) [11]: 0.5 µg/mL
MIC (minimum inhibitory concentration) [12]: 4 µg/mL
Relative activity Enzyme 1 [13]: 3 (Compounds having the inhibitory activity at 2-fold, 4-fold, 8-fold and 16-fold higher concentrations than that of polyoxin D were given the values of 4, 3, 2 and 1, respectively)

13-(4-Isopropylbenzyl)-9-O-hexylberberrubine iodide [Compound No. 19]
Relative activity Enzyme 2 [1]: 6 (compounds having the inhibitory activity at ½, ¼ and ⅛ lower concentrations than that of polyoxin D were given the values of 6, 7 and 8, respectively)
MIC (minimum inhibitory concentration) [2]: 2 µg/mL
MIC (minimum inhibitory concentration) [3]: 0.125 µg/mL
MIC (minimum inhibitory concentration) [4]: 2 µg/mL
MIC (minimum inhibitory concentration) [5]: 0.25 µg/mL
MIC (minimum inhibitory concentration) [6]: 8 µg/mL
MIC (minimum inhibitory concentration) [7]: 8 µg/mL
MIC (minimum inhibitory concentration) [8]: 2 µg/mL
MIC (minimum inhibitory concentration) [9]: 0.25 µg/mL
MIC (minimum inhibitory concentration) (Candida krusei ATCC 6258): 1 µg/mL
MIC (minimum inhibitory concentration) [10]: 1 µg/mL
MIC (minimum inhibitory concentration) [11]: 1 µg/mL
MIC (minimum inhibitory concentration) [12]: 4 µg/mL
Relative activity Enzyme 1 [13]: 4 (Compounds having the inhibitory activity at 2-fold, 4-fold, 8-fold and 16-fold higher concentrations than that of polyoxin D were given the values of 4, 3, 2 and 1, respectively)
